Consider one compound from US6919380B2, “Derivatives of C2-substituted indan-1-ol systems for the prophylaxis or treatment of obesity” (Aventis Pharma Deutschland GmbH., priority 2001, dated 2005).

Each structure is given as a SMILES string.

One series relates to female NMRI mice. Kind of series: Anorectic action: cumulative evaporated milk consumption after removal of feed for 24 hours. It is filed as in vivo, mouse. The note with it: dose 10 mg/kg (ip or po, not specified). How it is done: The activity of the compounds of the formula I was assayed as follows: […]
The anorectic action was tested on female NMRI mice. After removal of feed for 24 hours, the preparation to be tested was administered intraperitoneally (ip) or by gavage (po). The animals were housed singly and, with free access to drinking water, they were offered evaporated milk 30 minutes after administration of the preparation. The consumption of evaporated milk was determined and the general behavior of the animals was monitored every half an hour for 7 hours. The measured milk consumption was compared to that of vehicle-treated control animals.

Regarding `CC(=O)OC1c2ccc(Cl)cc2CC1S(C)(=O)=O` (stereo not drawn) [Example 1, 1-Acetoxy-5-chloro-2-methylsulfonylindane], the melting point (commonly the temperature of the solid-liquid transition) was found to be 136 °C. The “Reduction in cumulative milk consumption as % of the control” value with female NMRI mice (compared with control animals) is 81%. In addition, in the series with female NMRI mice (milk offered 30 minutes after administration, monitored for 7 hours), the “cumulative milk consumption by treated animals” value is listed as 5/0.28 ml.
